{"source": "paper PMC4864329", "about": "“In vitro and in vivo efficacy, toxicity, bio-distribution and resistance selection of a novel antibacterial drug candidate” (Scientific Reports, 2016)", "key": {"human lymphocytes": {"tested_on": "human lymphocytes", "conditions": "positive control", "description": "Gene toxicity was assessed by testing the potential of SET-M33L to induce micronuclei in human lymphocytes. Human lymphocytes in whole blood culture, stimulated to divide by addition of PHA 48 hours prior to treatment, were exposed to SET-M33L for 3 hours with and without exogenous metabolic activation (S9 mix), and for 20 hours without S9 mix.\nAnalysis of micronucleated cells was based on the criteria described by Fenech and Morley[37] and Fenech[38]. […] Human lymphocytes from informed donors were pooled and diluted with HML media (RPMI 1640, supplemented with 10% fetal calf serum, 0.2 IU/ml sodium heparin, 20 IU/ml penicillin, 20 μg/ml streptomycin and 2.0 mM L-glutamine). […] Cultures were established from the prepared (pooled) sample and dispensed as 5 ml aliquots (in sterile universal containers) so that each culture contained blood (0.4 ml), HML media (4.5 ml) and PHA solution (0.1 ml). The cultures were then incubated at 37 °C, and the cells were resuspended (twice daily) by gentle inversion.\nLymphocyte cultures were incubated for approximately 48 hours after stimulation with PHA, before addition of SET-M33L; controls were appropriately diluted with vehicle. S9 homogenate was present in appropriate cultures at a final concentration of 2% v/v. Before treatment, all cultures were centrifuged and resuspended in the required volume of fresh medium, taking treatment volume and S9 mix volume into account. SET-M33L preparations were added to cultures at 10% v/v. Cultures were incubated at 37 °C for 3 or 20 hours.\nThe cells were centrifuged and the medium replaced with fresh medium. Cytochalasin B, at a final concentration of 6 μg/ml, was then added to all cultures. The cultures were incubated for a further 17 hours until the scheduled harvest time.\nThe cells were harvested by centrifugation at 500 g for 5 minutes. […] The prepared slides were examined by fluorescence microscopy. The incidences of mononucleate, binucleate and polynucleate cells were assessed per culture per 1000 binucleate cells. […]"}, "[1]": {"tested_on": "Klebsiella pneumoniae clinical isolates", "format": "cell-based", "conditions": "clinical isolates", "description": "Minimum inhibitory concentrations (MICs) of SET-M33L were determined against 76 clinical isolates of Pseudomonas aeruginosa and 73 clinical isolates of Klebsiella pneumoniae. The isolates were selected on the basis of their resistance phenotypes and major antibiotic resistance determinants, including resistance to colistin and carriage of carbapenemase-encoding genes (Table 1 and supplemental Tables S1 and S2).\nMIC values were determined against a large collection of clinical isolates. Most isolates were collected during routine susceptibility testing procedures at the Clinical Microbiology Unit of Careggi University Hospital in Florence, while specific isolates were selected according to their phenotype or genotype (e.g. carriage of carbapenemase-encoding genes, inclusion in epidemic bacterial clones, resistance to colistin) from a collection of isolates already available at Department of Medical Biotechnologies, University of Siena. Detailed features of each strain, including relevant resistance phenotypes and genotypes were reported in supplemental Tables S1 and S2. MICs were determined in triplicate using a standard microdilution assay according to the guidelines of the Clinical and Laboratory Standards Institute[34]. SET-M33L was assayed using concentrations in the range 0.09–11.2 μM (0.5–64 μg/mL); testing was performed using a bacterial inoculum of 5 × 10^4 CFU/well prepared in cation-supplemented Mueller-Hinton broth (MHB) (Becton Dickinson, Franklin Lakes, NJ, USA) in a final volume of 100 μl. Results were recorded after 18–20 h of incubation at 35 °C."}, "BALB/c mice": {"tested_on": "BALB/c mice", "test": "Acute toxicity in mice, single i.v. dose", "format": "in vivo, mouse", "description": "As preliminary toxicity evaluation we first compared the acute toxicity of SET-M33L and SET-M33L-PEG with that of colistin. Animals (10 BALB/c mice/group) were injected i.v. with different amounts of SET-M33L, SET-M33L-PEG or colistin, in single dose, in the range 5–40 mg/kg (Fig. 4), and were monitored for 4 days after inoculation of the peptide. […] At 40 mg/Kg SET-M33L and SET-M33L-PEG produced similar toxicity profiles with strong signs of toxicity and 90–100% mortality after 96 hours. Colistin produced strong signs of toxicity already at 10 mg/Kg: 50% mortality immediately after inoculation and 70% mortality after 24 hours. Colistin induced sudden death in 100% of mice at 20 and 40 mg/Kg.\nMice were treated by a single i.v. administration of different amounts (40, 20, 10, 5 mg/Kg) of SET-M33L, SET-M33L-PEG or colistin sulfate (Sigma-Aldrich, C4461). Signs of toxicity were checked four times a day by visual inspection. A toxicity score was assigned for the following signs: wiry coat and poor motility = mild signs; very wiry coat, abundant lachrymation and poor motility even under stimulation = manifest signs. Animals were monitored for 4 days after inoculation of the peptide. Mice were weighed every day from arrival to the last day of the experiment. Moribund animals were killed humanely to avoid unnecessary distress."}, "[2]": {"tested_on": "K. pneumoniae strain KKBO-1", "format": "cell-based, Klebsiella pneumoniae", "conditions": "K. pneumoniae KKBO-1", "description": "Tests were performed by plating cells on SET-M33L- or colistin-containing MHB."}}, "note": "Where two headings read alike, the source gives them in different places. Positions of bridges follow the written chain, without caps; N, C: chain ends. Non-standard residues stand in square brackets, D forms with d. Residues, ends and D or L forms follow the SMILES beside them. Chains are numbered I, II in the order given. βAla = NCCC(=O)O"}
{"smiles": "O=P1(N(CCCl)CCCl)NCCCO1", "note": "(stereo not shown) [CPA, Cyclophosphamide]", "values": [{"measurement": "Mean of binucleate cells containing micronuclei per 1000 cells", "setting": "human lymphocytes; 3h + S9, 10 μg/ml", "value": 17.0, "unit": "per 1000 cells"}]}
{"smiles": "CO[C@@]12[C@H](COC(N)=O)C3=C(C(=O)C(C)=C(N)C3=O)N1C[C@@H]1N[C@@H]12", "note": "[MMC, Mitomycin C]", "values": [{"measurement": "Mean of binucleate cells containing micronuclei per 1000 cells", "setting": "human lymphocytes; 3h − S9, 0.2 μg/ml", "value": 28.0, "unit": "per 1000 cells"}, {"measurement": "Mean of binucleate cells containing micronuclei per 1000 cells", "setting": "human lymphocytes; 20h − S9, 0.05 μg/ml", "value": 22.5, "unit": "per 1000 cells"}]}
{"smiles": "CC[C@H](C)[C@H](NC(=O)[C@H](CCCCN)NC(=O)[C@@H](N)CCCCN)C(=O)N[C@@H](CCCNC(=N)N)C(=O)N[C@H](C(=O)N[C@@H](CCCNC(=N)N)C(=O)N[C@@H](CC(C)C)C(=O)N[C@@H](CO)C(=O)N[C@@H](C)C(=O)NCCCC[C@H](NC(=O)[C@H](C)NC(=O)[C@H](CO)NC(=O)[C@H](CC(C)C)NC(=O)[C@H](CCCNC(=N)N)NC(=O)[C@@H](NC(=O)[C@H](CCCNC(=N)N)NC(=O)[C@@H](NC(=O)[C@H](CCCCN)NC(=O)[C@@H](N)CCCCN)[C@@H](C)CC)C(C)C)C(=O)NCCCC[C@H](NC(=O)[C@H](CCCCNC(=O)[C@H](C)NC(=O)[C@H](CO)NC(=O)[C@H](CC(C)C)NC(=O)[C@H](CCCNC(=N)N)NC(=O)[C@@H](NC(=O)[C@H](CCCNC(=N)N)NC(=O)[C@@H](NC(=O)[C@H](CCCCN)NC(=O)[C@@H](N)CCCCN)[C@@H](C)CC)C(C)C)NC(=O)[C@H](C)NC(=O)[C@H](CO)NC(=O)[C@H](CC(C)C)NC(=O)[C@H](CCCNC(=N)N)NC(=O)[C@@H](NC(=O)[C@H](CCCNC(=N)N)NC(=O)[C@@H](NC(=O)[C@H](CCCCN)NC(=O)[C@@H](N)CCCCN)[C@@H](C)CC)C(C)C)C(=O)NCCC(=O)O)C(C)C", "note": "[SET-M33L] (I: H-KKIRVRLSAKK[βAla]-OH / II: H-KKIRVRLSAK / III: H-KKIRVRLSA / IV: H-KKIRVRLSA; amide I:10-IV:C, I:11-II:C, II:10-III:C)", "values": [{"measurement": "MIC", "setting": "[1]", "value": "> 64", "unit": "µg/mL"}, {"measurement": "mortality", "setting": "BALB/c mice; single i.v. dose 40 mg/Kg, after 96 hours", "value": "90–100%"}, {"measurement": "lethality and signs of toxicity", "setting": "BALB/c mice; single i.v. dose up to 20 mg/kg, monitored 4 days, 10 BALB/c mice/group", "value": "not lethal and no signs of toxicity were observed"}, {"measurement": "MIC", "setting": "[2]", "value": 0.35, "unit": "µM"}]}
